“And” between values parts separate entries of the source, which are not always exact repeats. Identical values can stand only once. Values belong to the molecule of their own block, whether it stands above or below them.
What was measured:
[1] = tested on: C57BL/6 mice; assay: Mouse cutaneous Reverse Passive Arthus (RPA) reaction, edema; assay type: in vivo
Description: Immune complex (IC)-mediated acute inflammatory tissue injury is implicated in a variety of human autoimmune diseases, including vasculitis syndrome, sick serum syndrome, systemic lupus erythematosus (SLE), rheumatoid arthritis, Goodpasture's syndrome, and glomerulonephritis. The classical experimental model for IC-mediated tissue injury is the reverse passive Arthus reaction. The RPA reaction model is a convenient in vivo method to study localized inflammation, induced by ICs, without systemic effects. Intradermal injection of antibodies (Abs) specific to chicken egg albumin (rabbit anti-OVA IgG), followed by intravenous (IV) injection of antigens (Ags), specifically chicken egg albumin (ovalbumin, OVA), causes perivascular deposition of ICs and a rapid inflammatory response characterized by edema, neutrophil infiltration and hemorrhage at the injection sites. Aspects of the mouse RPA reaction model resemble the inflammatory response of patients with rheumatoid arthritis, SLE and glomerulonephritis.
(§1) In this model system, test compounds are administered at several timepoints prior to administration of Abs and Ags. A solution of rabbit anti-OVA IgG ([…] in 25 μl/mouse) is injected intradermally, and immediately following is an intravenous injection of chicken egg albumin (20 mg/kg of body weight) in a solution containing 1% Evans blue dye. The degree of edema and hemorrhage is measured in the dorsal skin of C57BL/6 mice using the Evan's Blue dye as an indicator of local tissue damage. Purified polyclonal rabbit IgG is used as a control.
Pretreatment time, in which the test compounds are administered prior to Ab/Ag challenge, depends on the pharmacokinetic (PK) properties of each individual compound. Four hours after induction of Arthus reaction, mice are euthanized, and tissues are harvested for assessment of edema. This model system allows us to rapidly screen the in vivo activity of many inhibitors.
(§2) All compounds tested were administered by the oral route.

[2] = tested on: cultured human mast cells (CHMC); assay: CHMC low cell density IgE activation: tryptase assay; assay type: cell-based; settings: Homo sapiens, Mast cell, IgE activation
In short: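 Fluorogenic readout of tryptase released into the supernatant (30 min substrate incubation, room temperature) measures degranulation. Cells were plated at low density (1000–1500/well, varied by donor) and triggered with anti-IgE for 30 min at 37 °C.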

[3] = tested on: cultured human mast cells (CHMC); assay: CHMC low cell density ionomycin activation: tryptase assay; assay type: cell-based; settings: Homo sapiens, Mast cell, 3 pt, read-out: LD Tryptase, CHMC, Iono, 3 pt
[4] = Plasma concentration in the mouse RPA reaction study; assay type: in vivo
Procedure: as §1
Pretreatment time, in which the test compounds are administered prior to Ab/Ag challenge, depends on the pharmacokinetic (PK) properties of each individual compound. Four hours after induction of Arthus reaction, mice are euthanized, and tissues are harvested for assessment of edema.
as §2

[5] = target: T1, Syk kinase (Homo sapiens, UniProt P43405); assay: Syk kinase biochemical fluorescence polarization assay; settings: isolated Syk kinase, 11 pt, read-out: fp_syk, 11 pt
T1 construct: purchased Upstate, Lake Placid N.Y
Procedure: Many of the 2,4-pyrimidinediamine compounds were tested for the ability to inhibit Syk kinase catalyzed phosphorylation of a peptide substrate in a biochemical fluorescenced polarization assay with isolated Syk kinase. In this experiment, Compounds were diluted to 1% DMSO in kinase buffer (20 mM HEPES, pH 7.4, 5 mM MgCl2, 2 mM MnCl2, 1 mM DTT, 0.1 mg/mL acetylated Bovine Gamma Globulin). Compound in 1% DMSO (0.2% DMSO final) was mixed with ATP/substrate solution at room temperature. Syk kinase (Upstate, Lake Placid N.Y.) was added to a final reaction volume of 20 uL, and the reaction was incubated for 30 minutes at room temperature. […] EDTA (10 mM final)/anti-phosphotyrosine antibody (1× final)/fluorescent phosphopeptide tracer (0.5× final) was added in FP Dilution Buffer to stop the reaction for a total volume of 40 uL according to manufacturer's instructions (PanVera Corporation) The plate was incubated for 30 minutes in the dark at room temperature. Plates were read on a Polarion fluorescence polarization plate reader (Tecan). Data were converted to amount of phosphopeptide present using a calibration curve generated by competition with the phosphopeptide competitor provided in the Tyrosine Kinase Assay Kit, Green (PanVera Corporation).

[6] = 0.1 mg/kg oral, pretreatment time 0.5 hrs
[7] = 0.5 mg/kg oral, pretreatment time 0.5 hrs
[8] = 1 mg/kg oral, pretreatment time 0.5 hrs
[9] = 5 mg/kg oral, pretreatment time 0.5 hrs
[10] = low cell density CHMC, tryptase release, 3 pt, read-out: LD Tryptase, CHMC, IgE, 3 pt
[11] = low cell density CHMC, tryptase release, 8 pt, read-out: LD Tryptase, CHMC, IgE, 8 pt
[12] = low cell density CHMC, tryptase release
[13] = oral, dosage 0.5, pretreatment 5
[14] = oral, printed in dosage position 0.5, in pretreatment position 15
[15] = low cell density, 3 pt, read-out: LD Tryptase, CHMC, IgE, 3 pt
[16] = low cell density, 8 pt, read-out: LD Tryptase, CHMC, IgE, 8 pt
[17] = low cell density CHMC, tryptase, 3 pt, read-out: LD Tryptase, CHMC, IgE, 3 pt
[18] = low cell density CHMC, tryptase, 8 pt, read-out: LD Tryptase, CHMC, IgE, 8 pt
[19] = low cell density CHMC, tryptase

SMILES: Cc1nc2ccc(Nc3ncc(F)c(Nc4ccc5c(c4)NC(=O)C(C)(C)O5)n3)cc2[nH]1 [Compound 810, N4-(2,2-Dimethyl-3-oxo-4H-benz[1,4]oxazin-6-yl)-5-fluoro-N2-(2-methyl-3H-benzimidazol-5-yl)-2,4-pyrimidinediamine]
- % inhibition to vehicle control Edema Size ± SEM [1, 6]: 69.5 ± 19.6%
- % inhibition to vehicle control Edema Size ± SEM [1, 7]: 60.9 ± 9.6%
- % inhibition to vehicle control Edema Size ± SEM [1, 8]: 81.3% and 81.3 ± 8.4%
- % inhibition to vehicle control Edema Size ± SEM [1, 9]: 92.1 ± 3.1%
- IC50 [2, 10]: < 10 µM
- IC50 [2, 11]: < 10 µM
- IC50 [3, 12]: > 10 µM

SMILES: Cn1c(N2CCOCC2)nc2cc(Nc3ncc(F)c(Nc4ccc5c(c4)NC(=O)C(C)(C)O5)n3)ccc21 [Compound 944, N4-(2,2-Dimethyl-3-oxo-4H-benz[1,4]oxazin-6-yl)-5-fluoro-N2-[1-methyl-2-(4-morpholino)benzimidazol-5-yl]-2,4-pyrimidinediamine]
- Exposure = Pretreatment Time + 4 hours Plasma Concentration ± SEM [4, 13]: 3.4 ± 9.1 ng/mL
- Satellite: At time of challenge Plasma Concentration ± SEM [4, 13]: 22.1 ± 52.4 ng/mL
- Exposure = Pretreatment Time + 4 hours Plasma Concentration ± SEM [4, 14]: 85.1 ± 161.9 ng/mL
- Satellite: At time of challenge Plasma Concentration ± SEM [4, 14]: 1074.0 ± 492.3 ng/mL
- % inhibition to vehicle control Edema Size ± SEM ([1]; 2 mg/kg oral, pretreatment time 1 hr): 39.3 ± 13.8%
- % inhibition to vehicle control Edema Size ± SEM ([1]; 5 mg/kg oral, pretreatment time 1 hr): 48.4 ± 12.0%
- % inhibition to vehicle control Edema Size ± SEM ([1]; 15 mg/kg oral, pretreatment time 1 hr): 56.1 ± 9.2%
- % inhibition to vehicle control Edema Size ± SEM [1, 13]: −16.0 ± 17.3%
- % inhibition to vehicle control Edema Size ± SEM [1, 14]: 8.3 ± 13.4%
- IC50 [2, 15]: < 10 µM
- IC50 [2, 16]: < 10 µM

SMILES: CNC(=O)CNC(=O)c1ccc(Nc2ncc(F)c(Nc3ccc4c(c3)C(N)CCO4)n2)cc1 (racemic) [Compound 1299, (R,S)-N4-[4-Amino-3,4-dihydro-2H-1-benzopyran-6-yl]-5-fluoro-N2-[4-[N-(N-methylamino)carbonylmethylene]aminocarbonylphenyl]-2,4-pyrimidinediamine]
- IC50 [2, 17]: < 10 µM
- IC50 [2, 18]: < 10 µM
- IC50 [5]: < 10 µM
- IC50 [3, 19]: > 10 µM

SMILES: COc1c(C)cc(Nc2ncc(F)c(Nc3ccc4c(c3)NC(=O)C(C)(C)O4)n2)cc1Cl.Cc1ccc(S(=O)(=O)O)cc1 [Compound 994, N2-(3-Chloro-4-methoxy-5-methylphenyl)-N4-(2,2-dimethyl-3-oxo-4H-benz[1,4]oxazin-6-yl)-5-fluoro-2,4-pyrimidinediamine p-Toluenesulfonic Acid Salt]
- % inhibition to vehicle control Edema Size ± SEM ([1]; 100 mg/kg oral, 90 minutes prior to Ab/Ag challenge (pretreatment cell of table empty), C57BL/6 mice): 75% and 75.0 ± 6.2%
- IC50 ([2]; CHMC, read-out: in vitro Potency (CHMC IgE)): 0.047 µM
- IC50 [2, 15]: < 10 µM
- IC50 [2, 16]: < 10 µM
- IC50 ([3]; low cell density): < 10 µM

SMILES: Cc1nc2ccc(Nc3ncc(F)c(Nc4ccc(Cl)c(Cl)c4)n3)cc2[nH]1 [Compound 809, N4-(3,4-Dichlorophenyl)-5-fluoro-N2-(2-methyl-3H-benzimidazol-5-yl)-2,4-pyrimidinediamine]
- IC50 [2, 10]: < 10 µM
- IC50 [2, 11]: < 10 µM
- IC50 [5]: < 10 µM
- IC50 [3, 12]: > 10 µM

SMILES: Fc1cnc(Nc2ccc3[nH]c(C(F)(F)F)nc3c2)nc1Nc1ccc(Cl)c(Cl)c1 [Compound 801, N4-(3,4-Dichlorophenyl)-5-fluoro-N2-(2-trifluoromethyl-1H-benzimidazol-5-yl)-2,4-pyrimidinediamine]
- IC50 [2, 10]: < 10 µM
- IC50 [2, 11]: < 10 µM
- IC50 [5]: < 10 µM
- IC50 [3, 12]: < 10 µM

Now from value to molecule, other results behind:

- IC50 [2, 17]: < 10 µM
- IC50 [2, 18]: < 10 µM
- IC50 [5]: > 10 µM
- IC50 [3, 19]: > 10 µM
SMILES: COc1ccc(N(C)c2nc(Nc3cccc(-c4ncco4)c3)ncc2F)cc1OC [Compound 439, N4-(3,4-Dimethoxyphenyl)-5-fluoro-N4-methyl-N2-[3-(oxazol-2-yl)phenyl]-2,4-pyrimidinediamine]

- Exposure = Pretreatment Time + 4 hours Plasma Concentration ± SEM [4, 6]: BLQ
- Exposure = Pretreatment Time + 4 hours Plasma Concentration ± SEM [4, 7]: BLQ
SMILES: COc1cc(Nc2ncc(F)c(Nc3ccc4c(n3)NC(=O)C(C)(C)O4)n2)cc(OC)c1OC [Compound 1007, N4-(2,2-Dimethyl-3-oxo-4H-5-pyrid[1,4]oxazin-6-yl)-5-fluoro-N2-(3,4,5-trimethoxyphenyl)-2,4-pyrimidinediamine]
- % inhibition to vehicle control Edema Size ± SEM [1, 6]: 64.3% and 64.3 ± 11.2%
- % inhibition to vehicle control Edema Size ± SEM [1, 7]: 78.7% and 78.7 ± 6.3%
- % inhibition to vehicle control Edema Size ± SEM [1, 8]: 89.4 ± 2.2% and 98.1 ± 0.8%
- % inhibition to vehicle control Edema Size ± SEM ([1]; 3 mg/kg oral, pretreatment time 0.5 hrs): 86.3 ± 7.9%
- % inhibition to vehicle control Edema Size ± SEM [1, 9]: 99.8% and 99.8 ± 0.2%
- % inhibition to vehicle control Edema Size ± SEM ([1]; 10 mg/kg oral, pretreatment time 0.5 hrs): 97.8 ± 1.1%
- % inhibition to vehicle control Edema Size ± SEM ([1]; 30 mg/kg oral, pretreatment time 0.5 hrs): 88.2 ± 5.7%

- IC50 [2, 17]: > 10 µM
- IC50 [2, 18]: > 10 µM
- IC50 [5]: > 10 µM
- IC50 [3, 19]: > 10 µM
SMILES: COc1ccc(N(C)c2nc(Cl)ncc2F)cc1OC [Compound 417]

- IC50 [2, 17]: < 10 µM
- IC50 [2, 18]: < 10 µM
- IC50 [5]: < 10 µM
- IC50 [3, 19]: > 10 µM
SMILES: COc1cc(OC)cc(N(C)c2nc(Nc3cc(C)cc(C)c3)ncc2F)c1 [Compound 399, N4-(3,5-Dimethoxyphenyl)-N2-(3,5-dimethylphenyl)-5-fluoro-N4-methyl-2,4-pyrimidinediamine]

From patent publication US20220073536A1 (Rigel Pharmaceuticals, Inc., priority 2003, published 2022)
